In test [1] the test system is DLA. The experiment in a line: Antitumor activity in mouse DLA cells xenografted Swiss albino mouse assessed as inhibition of tumor cell proliferation at 1 mg/kg, po administered after 7 days of tumor induction measured each 3 days upto 31 days. Format: functional, organism-based. Further details: dose 1 mg/kg.
Test [2] concerns DLA. The experiment in a line: Antiproliferative activity against mouse DLA cells assessed as radiolabeled thymidine incorporation at 10 to 200 ug after 24 hrs by liquid scintillation counter. It is filed as functional, cell-based.

The structures appear in SMILES notation. Activity calls are given as the source filed them. The rule behind the calls is not given here.

As to `CC(=O)OC1(c2ccccc2)OC(c2ccccc2)=C(c2ccccc2)C1=O` (centres undefined), the result in test [1] and in test [2] was Active.

As to `COC1(c2ccccc2)OC(c2ccccc2)=C(c2ccccc2)C1=O` (centres undefined), the result in test [1] and in test [2] was Active.

These data come from ChEMBL document CHEMBL1143330, “Preliminary investigations on the synthesis and antitumor activity of 3(2H)-furanones” (Bioorg Med Chem Lett, 2009).
